# According to ChEMBL document CHEMBL3885881, “DrugMatrix”:
# Species: Rattus norvegicus
# Assay: DrugMatrix - Regimen: Daily Repeat
# Format: toxicity, organism-based, Sprague-Dawley
# Parameters: regimen Daily Repeat, gender Male, age 6-8 weeks
# Conditions: in vivo, iv, vehicle 100 % SALINE; for ABSOLUTE BASOPHIL / ABSOLUTE EOSINOPHIL / ABSOLUTE LYMPHOCYTE / ABSOLUTE MONOCYTE / ABSOLUTE SEGMENTED NEUTROPHIL / BASOPHIL / EOSINOPHIL / ERYTHROCYTE COUNT / HEMATOCRIT / HEMOGLOBIN / LEUKOCYTE COUNT / LYMPHOCYTE / MEAN CORPUSCULAR HEMOGLOBIN / MEAN CORPUSCULAR HEMOGLOBIN CONCENTRATION / MEAN CORPUSCULAR VOLUME / MONOCYTE / NEUTROPHIL / NUCLEATED RED BLOOD CELLS / PLATELET COUNT: tissue Blood; for ALANINE AMINOTRANSFERASE / ALBUMIN / ALKALINE PHOSPHATASE / ASPARTATE AMINOTRANSFERASE / BLOOD UREA NITROGEN / CARBON DIOXIDE / CHLORIDE / CHOLESTEROL / CREATINE PHOSPHOKINASE / CREATININE / GLUCOSE / LACTATE DEHYDROGENASE / LIPASE / PHOSPHORUS / POTASSIUM / SODIUM / TOTAL BILIRUBIN / TOTAL PROTEIN / URIC ACID: tissue Plasma
# [1] = 0 mg/kg, 72 h, dose level Control, time 3 day
# [2] = 0 mg/kg, 120 h, dose level Control, time 5 day
# [3] = 23 mg/kg, 72 h, dose level High, time 3 day
smiles,measurement,setting,value
COC(=O)C[C@](O)(CCC(C)(C)O)C(=O)O[C@@H]1C(OC)=C[C@]23CCCN2CCc2cc4c(cc2[C@H]13)OCO4 [HARRINGTONINE],ABSOLUTE BASOPHIL,[1],0 CELLS/uL
same,ABSOLUTE EOSINOPHIL,[1],15.33 CELLS/uL
same,ABSOLUTE LYMPHOCYTE,[1],9513.5 CELLS/uL
same,ABSOLUTE MONOCYTE,[1],94.67 CELLS/uL
same,ABSOLUTE SEGMENTED NEUTROPHIL,[1],709.83 CELLS/uL
same,BASOPHIL,[1],0%
same,EOSINOPHIL,[1],0.17%
same,ERYTHROCYTE COUNT,[1],5.63 x10E6/uL
same,HEMATOCRIT,[1],34.63%
same,HEMOGLOBIN,[1],13.6 G/DL
same,LEUKOCYTE COUNT,[1],10.33 x10E3/uL
same,LYMPHOCYTE,[1],92%
same,MEAN CORPUSCULAR HEMOGLOBIN,[1],24.17 pg
same,MEAN CORPUSCULAR HEMOGLOBIN CONCENTRATION,[1],39.28 G/DL
same,MEAN CORPUSCULAR VOLUME,[1],61.57 fL
same,MONOCYTE,[1],0.83%
same,NEUTROPHIL,[1],7%
same,NUCLEATED RED BLOOD CELLS,[1],0 /100WBC
same,PLATELET COUNT,[1],903.17 x10E3/uL
same,ALANINE AMINOTRANSFERASE,[1],49.33 u/L
same,ALBUMIN,[1],4.27 G/DL
same,ALKALINE PHOSPHATASE,[1],400.83 u/L
same,ASPARTATE AMINOTRANSFERASE,[1],77.5 u/L
same,BLOOD UREA NITROGEN,[1],16.33 mg/dL
same,CARBON DIOXIDE,[1],29.33 mmol/L
same,CHLORIDE,[1],99.67 MEQ/L
same,CHOLESTEROL,[1],66.67 mg/dL
same,CREATINE PHOSPHOKINASE,[1],275.33 u/L
same,CREATININE,[1],0.18 mg/dL
same,GLUCOSE,[1],163.83 mg/dL
same,LACTATE DEHYDROGENASE,[1],125.33 u/L
same,LIPASE,[1],10 u/L
same,PHOSPHORUS,[1],12.12 mg/dL
same,POTASSIUM,[1],6.68 MEQ/L
same,SODIUM,[1],144.02 MEQ/L
same,TOTAL BILIRUBIN,[1],0.18 mg/dL
same,TOTAL PROTEIN,[1],5.87 G/DL
same,URIC ACID,[1],1.63 mg/dL
same,ABSOLUTE BASOPHIL,[2],0 CELLS/uL
same,ABSOLUTE EOSINOPHIL,[2],48.83 CELLS/uL
same,ABSOLUTE LYMPHOCYTE,[2],14562 CELLS/uL
same,ABSOLUTE MONOCYTE,[2],138.67 CELLS/uL
same,ABSOLUTE SEGMENTED NEUTROPHIL,[2],1733.83 CELLS/uL
same,BASOPHIL,[2],0%
same,EOSINOPHIL,[2],0.33%
same,ERYTHROCYTE COUNT,[2],5.89 x10E6/uL
same,HEMATOCRIT,[2],36.7%
same,HEMOGLOBIN,[2],14.42 G/DL
same,LEUKOCYTE COUNT,[2],16.48 x10E3/uL
same,LYMPHOCYTE,[2],88.83%
same,MEAN CORPUSCULAR HEMOGLOBIN,[2],24.52 pg
same,MEAN CORPUSCULAR HEMOGLOBIN CONCENTRATION,[2],39.3 G/DL
same,MEAN CORPUSCULAR VOLUME,[2],62.37 fL
same,MONOCYTE,[2],0.67%
same,NEUTROPHIL,[2],10.17%
same,NUCLEATED RED BLOOD CELLS,[2],0 /100WBC
same,PLATELET COUNT,[2],1076.5 x10E3/uL
same,ALANINE AMINOTRANSFERASE,[2],44.67 u/L
same,ALBUMIN,[2],4.23 G/DL
same,ALKALINE PHOSPHATASE,[2],357.33 u/L
same,ASPARTATE AMINOTRANSFERASE,[2],84.83 u/L
same,BLOOD UREA NITROGEN,[2],15.5 mg/dL
same,CARBON DIOXIDE,[2],27 mmol/L
same,CHLORIDE,[2],99.5 MEQ/L
same,CHOLESTEROL,[2],63.67 mg/dL
same,CREATINE PHOSPHOKINASE,[2],331.33 u/L
same,CREATININE,[2],0.18 mg/dL
same,GLUCOSE,[2],167.33 mg/dL
same,LACTATE DEHYDROGENASE,[2],320.17 u/L
same,LIPASE,[2],9.17 u/L
same,PHOSPHORUS,[2],12.05 mg/dL
same,POTASSIUM,[2],6.54 MEQ/L
same,SODIUM,[2],143.02 MEQ/L
same,TOTAL BILIRUBIN,[2],0.2 mg/dL
same,TOTAL PROTEIN,[2],6.23 G/DL
same,URIC ACID,[2],2.07 mg/dL
same,ABSOLUTE BASOPHIL,[3],0 CELLS/uL
same,ABSOLUTE EOSINOPHIL,[3],0 CELLS/uL
same,ABSOLUTE LYMPHOCYTE,[3],9185.67 CELLS/uL
same,ABSOLUTE MONOCYTE,[3],0 CELLS/uL
same,ABSOLUTE SEGMENTED NEUTROPHIL,[3],547.67 CELLS/uL
same,BASOPHIL,[3],0%
same,EOSINOPHIL,[3],0%
same,ERYTHROCYTE COUNT,[3],5.37 x10E6/uL
same,HEMATOCRIT,[3],32.9%
same,HEMOGLOBIN,[3],12.87 G/DL
same,LEUKOCYTE COUNT,[3],9.73 x10E3/uL
same,LYMPHOCYTE,[3],94.33%
same,MEAN CORPUSCULAR HEMOGLOBIN,[3],23.97 pg
same,MEAN CORPUSCULAR HEMOGLOBIN CONCENTRATION,[3],39.1 G/DL
same,MEAN CORPUSCULAR VOLUME,[3],61.2 fL
same,MONOCYTE,[3],0%
same,NEUTROPHIL,[3],5.67%
same,NUCLEATED RED BLOOD CELLS,[3],0 /100WBC
same,PLATELET COUNT,[3],883 x10E3/uL
same,ALANINE AMINOTRANSFERASE,[3],44.67 u/L
same,ALBUMIN,[3],3.57 G/DL
same,ALKALINE PHOSPHATASE,[3],237.67 u/L
same,ASPARTATE AMINOTRANSFERASE,[3],76 u/L
same,BLOOD UREA NITROGEN,[3],14.67 mg/dL
same,CARBON DIOXIDE,[3],24.67 mmol/L
same,CHLORIDE,[3],101 MEQ/L
same,CHOLESTEROL,[3],58.33 mg/dL
same,CREATINE PHOSPHOKINASE,[3],746.33 u/L
same,CREATININE,[3],0.17 mg/dL
same,GLUCOSE,[3],168.33 mg/dL
same,LACTATE DEHYDROGENASE,[3],240.33 u/L
same,LIPASE,[3],8 u/L
same,PHOSPHORUS,[3],11.7 mg/dL
same,POTASSIUM,[3],5.94 MEQ/L
same,SODIUM,[3],141.53 MEQ/L
same,TOTAL BILIRUBIN,[3],0.2 mg/dL
same,TOTAL PROTEIN,[3],5.2 G/DL
same,URIC ACID,[3],1.93 mg/dL
